Test results taken from patent publication US8598204B2, “1,2-dihydro-2-oxoquinoline compounds as 5-HT4 receptor ligands” (Suven Life Sciences Limited, priority 2009, dated 2013).

Legend:
[1] = Rodent brain penetration study; assay type: in vivo; conditions: Wistar, rat; Wister/Male rats, 10 mg/kg, Oral, vehicle Water; brain/plasma; read-out: Steady State Brain Penetration (Cb/Cp)
Experimental: Male Wister rats (230-280 grams) obtained from NIN (National Institute of Nutrition, Hyderabad, India) was used as an experimental animal. Three animals were housed in each cage. Animals were given water and food ad libitum throughout the experiment, and maintained on a 12 hours light/dark cycle.
Brain penetration was determined in discrete manner in rats. One day prior to dosing day, male wistar rats (225-250 grams) were acclimatized. After acclimatization the rats were grouped according to the weight in each group, 3 animals were kept in individual cage and allowed free access to food and water. At each time point (0.5, 1, and 2 hours) n=3 animals were used.
NCE compound was dissolved in water and administered orally at (free base) 10 mg/kg. Blood samples were removed via, cardiac puncture by using isofurane anesthesia the animals were sacrificed to collect brain tissue. Plasma was separated and Brain samples were homogenized and stored frozen at −20° C. until analysis. The concentrations of the NCE compound in plasma and Brain were determined using LC-MS/MS method.
The NCE compounds were quantified in plasma and brain homogenate by validated LC-MS/MS method using solid phase extraction technique. NCE compounds were quantified in the calibration range of 1-500 ng/mL in plasma and brain homogenate. Study samples were analyzed using calibration samples in the batch and quality control samples spread across the batch. Extents of brain-blood ratio were calculated (Cb/Cp).

[2] = target: T1, recombinant human 5-HT4 receptor (Homo sapiens, UniProt Q13639); test: Determination of EC50 values for 5-HT4 receptor (CRE-luciferase reporter, CHO cells); assay type: cell-based; conditions: stable CHO cell line expressing recombinant human 5-HT4 receptor and pCRE-Luc reporter; 4 hours incubation; luciferase activity
T1 construct: expressed in transfected cells
Experimental: A stable CHO cell line expressing recombinant human 5-HT4 receptor and pCRE-Luc reporter system was used for cell-based assay. The assay offers a non-radioactive based approach to determine binding of a compound to GPCRs. In this specific assay, the level of intracellular cyclic AMP which is modulated by activation or inhibition of the receptor is measured. The recombinant cells harbor luciferase reporter gene under the control of cAMP response element.
The above cells were grown in 96 well clear bottom white plates in Hams F12 medium containing 10% fetal bovine serum (FBS). Prior to the addition of compounds or standard agonist, cells were serum starved overnight. Increasing concentrations of test compounds were added in OptiMEM medium to the cells. The incubation was continued at 37° C. in CO2 incubator for 4 hours. Medium was removed and cells were washed with phosphate buffered saline. The cells were lysed and luciferase activity was measured in a Luminometer. Luminescence units were plotted against the compound concentrations using Graphpad software. EC50 values of the compounds were defined as the concentration required in stimulating the luciferase activity by 50%.

[3] = Rodent pharmacokinetic study; assay type: in vivo; conditions: Wistar, rat, plasma, Wister/Male rats, 5 mg/kg; for bioavailability: Oral versus Intravenous; for AUC(0-t) / Cmax / Tmax / half-life: vehicle Water
Experimental: Male Wister rats (230-280 grams) obtained from NIN (National Institute of Nutrition, Hyderabad, India) was used as an experimental animal. Three to five animals were housed in each cage. One day prior to dosing day, male wistar rats (225-250 grams) were anesthetized with isoflurane for surgical placement of jugular vein catheter. Animals were kept fasted over night and maintained on a 12 hours light/dark cycle. Three rats were dosed NCE (5 mg/Kg) orally and intravenously on day 0 and day 2.
At each time point blood was collected by jugular vein. Plasma was stored frozen at −20° C. until analysis. The concentrations of the NCE compound in plasma were determined using LC-MS/MS method. Schedule time points: Pre dose 0.25, 0.5, 1, 1.5, 2, 3, 4, 6, 8, 10, 12 and 24 hours after dosing (n=3). The NCE compounds were quantified in plasma by validated LC-MS/MS method using solid phase extraction technique. NCE compounds were quantified in the calibration range of 2-2000 ng/mL in plasma. Study samples were analyzed using calibration samples in the batch and quality control samples spread across the batch.
Pharmacokinetic parameters Cmax, Tmax, AUCt, T1/2 and Bioavailability were calculated by non-compartmental model using software WinNonlin version 5.0.1.

[4] = system: novel object recognition (cognition) in rats; test: Object recognition task model; assay type: in vivo, rat; conditions: 10 mg/kg p.o.; for Exploration time mean ± S.E.M, Familiar object / Exploration time mean ± S.E.M, Novel object: choice trial T2 24 hours after T1
Experimental: The cognition-enhancing properties of compounds of this invention were estimated using a model of animal cognition: the object recognition task model.
Male Wister rats (230-280 grams) obtained from N. I. N. (National Institute of Nutrition, Hyderabad, India) was used as experimental animals. Four animals were housed in each cage. Animals were kept on 20% food deprivation before one day and given water ad libitum throughout the experiment and maintained on a 12 hours light/dark cycle. Also the rats were habituated to individual arenas for 1 hour in the absence of any objects.
One group of 12 rats received vehicle (1 mL/Kg) orally and another set of animals received compound of the formula (I) either orally or i.p., before one hour of the familiar (T1) and choice trial (T2).
The experiment was carried out in a 50×50×50 cm open field made up of acrylic. In the familiarization phase (T1), the rats were placed individually in the open field for 3 minutes, in which two identical objects (plastic bottles, 12.5 cm height×5.5 cm diameter) covered in yellow masking tape alone (a1 and a2) were positioned in two adjacent corners, 10 cm. from the walls. After 24 hours of the (T1) trial for long-term memory test, the same rats were placed in the same arena as they were placed in (T1) trial. Choice phase (T2) rats were allowed to explore the open field for 3 minutes in presence of one familiar object (a3) and one novel object (b) (Amber color glass bottle, 12 cm high and 5 cm in diameter). Familiar objects presented similar textures, colors and sizes. During the T1 and T2 trial, explorations of each object (defined as sniffing, licking, chewing or having moving vibrissae whilst directing the nose towards the object at a distance of less than 1 cm) were recorded separately by stopwatch. Sitting on an object was not regarded as exploratory activity, however, it was rarely observed.
T1 is the total time spent exploring the familiar objects (a 1+a2).
T2 is the total time spent exploring the familiar object and novel object (a3+b).
The object recognition test was performed as described by Ennaceur, A., Delacour, J., 1988, A new one-trial test for neurobiological studies of memory in rats—Behavioural data, Behav. Brain Res., 31, 47-59.

T1 sequence (Q13639 whole entry): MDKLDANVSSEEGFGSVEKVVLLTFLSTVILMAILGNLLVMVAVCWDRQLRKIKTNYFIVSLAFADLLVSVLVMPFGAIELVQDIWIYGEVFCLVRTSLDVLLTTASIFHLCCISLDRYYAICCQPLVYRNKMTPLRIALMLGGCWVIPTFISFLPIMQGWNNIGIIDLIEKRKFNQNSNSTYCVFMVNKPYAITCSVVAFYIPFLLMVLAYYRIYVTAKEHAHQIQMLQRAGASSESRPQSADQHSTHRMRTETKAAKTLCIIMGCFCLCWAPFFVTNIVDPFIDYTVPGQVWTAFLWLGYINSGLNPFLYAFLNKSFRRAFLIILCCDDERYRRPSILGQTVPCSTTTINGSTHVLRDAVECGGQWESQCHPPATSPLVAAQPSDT

CC(C)n1c(=O)c(C(=O)NCCCN2C3CC4CC(C3)CC2C4)c(O)c2ccccc21.Cl [Example 1, N-[(2-Azatricyclo[3.3.1.1^3,7]dec-2-yl)propyl]-4-hydroxy-1-isopropyl-2-oxo-1,2-dihydroquinoline-3-carboxamide hydrochloride]
Kp [1]: 0.2 ± 0.04 | EC50 [2]: 230 nM | bioavailability [3]: 26 ± 11% | AUC(0-t) ([3]; Intravenous): 3020 ± 980 ng·h/mL | Cmax ([3]; Intravenous): 1170 ± 241 ng/mL | Tmax ([3]; Intravenous): 0.08 h | half-life ([3]; Intravenous): 1.88 ± 1.15 h | AUC(0-t) ([3]; Oral): 801 ± 105 ng·h/mL | Cmax ([3]; Oral): 211 ± 32 ng/mL | Tmax ([3]; Oral): 0.83 ± 0.29 h | half-life ([3]; Oral): 2.37 ± 0.6 h | Inference [4]: Active | Exploration time mean ± S.E.M, Familiar object [4]: 7.87 ± 0.83 s | Exploration time mean ± S.E.M, Novel object [4]: 12.56 ± 1.31 s

CC(C)n1c(=O)c(C(=O)NCCCN2C3CC4CC2CC(O)(C4)C3)c(O)c2ccccc21 [Example 4, N-[(5-Hydroxy-2-azatricyclo[3.3.1.1^3,7]dec-2-yl)propyl]-4-hydroxy-1-isopropyl-2-oxo-1,2-dihydroquinoline-3-carboxamide]
Kp [1]: 0.66 ± 0.1 | EC50 [2]: 421 nM | bioavailability [3]: 34 ± 6% | AUC(0-t) ([3]; Intravenous): 1660 ± 498 ng·h/mL | Cmax ([3]; Intravenous): 803 ± 62 ng/mL | Tmax ([3]; Intravenous): 0.08 h | half-life ([3]; Intravenous): 2.64 ± 0.89 h | AUC(0-t) ([3]; Oral): 547 ± 126 ng·h/mL | Cmax ([3]; Oral): 216 ± 78 ng/mL | Tmax ([3]; Oral): 0.33 h | half-life ([3]; Oral): 1.8 ± 0.36 h | Inference [4]: Active | Exploration time mean ± S.E.M, Familiar object [4]: 6.72 ± 1.92 s | Exploration time mean ± S.E.M, Novel object [4]: 11.86 ± 1.65 s
